Read-outs that look alike come from different tables or passages of the source.
How the values were obtained:
[1] = target: T1, human androgen receptor (AR) binding to flARE (Homo sapiens, UniProt P10275); assay: FAMA: inhibition of AR binding to flcARE; settings: binding to HRE, 5 concentrations 0.5-10 μM, sequential method
T1 construct: AR assays contained 1 nM flcARE and 50 nM full-length wild-type AR; FLAG; made in house
T1 sequence (P10275 1-920): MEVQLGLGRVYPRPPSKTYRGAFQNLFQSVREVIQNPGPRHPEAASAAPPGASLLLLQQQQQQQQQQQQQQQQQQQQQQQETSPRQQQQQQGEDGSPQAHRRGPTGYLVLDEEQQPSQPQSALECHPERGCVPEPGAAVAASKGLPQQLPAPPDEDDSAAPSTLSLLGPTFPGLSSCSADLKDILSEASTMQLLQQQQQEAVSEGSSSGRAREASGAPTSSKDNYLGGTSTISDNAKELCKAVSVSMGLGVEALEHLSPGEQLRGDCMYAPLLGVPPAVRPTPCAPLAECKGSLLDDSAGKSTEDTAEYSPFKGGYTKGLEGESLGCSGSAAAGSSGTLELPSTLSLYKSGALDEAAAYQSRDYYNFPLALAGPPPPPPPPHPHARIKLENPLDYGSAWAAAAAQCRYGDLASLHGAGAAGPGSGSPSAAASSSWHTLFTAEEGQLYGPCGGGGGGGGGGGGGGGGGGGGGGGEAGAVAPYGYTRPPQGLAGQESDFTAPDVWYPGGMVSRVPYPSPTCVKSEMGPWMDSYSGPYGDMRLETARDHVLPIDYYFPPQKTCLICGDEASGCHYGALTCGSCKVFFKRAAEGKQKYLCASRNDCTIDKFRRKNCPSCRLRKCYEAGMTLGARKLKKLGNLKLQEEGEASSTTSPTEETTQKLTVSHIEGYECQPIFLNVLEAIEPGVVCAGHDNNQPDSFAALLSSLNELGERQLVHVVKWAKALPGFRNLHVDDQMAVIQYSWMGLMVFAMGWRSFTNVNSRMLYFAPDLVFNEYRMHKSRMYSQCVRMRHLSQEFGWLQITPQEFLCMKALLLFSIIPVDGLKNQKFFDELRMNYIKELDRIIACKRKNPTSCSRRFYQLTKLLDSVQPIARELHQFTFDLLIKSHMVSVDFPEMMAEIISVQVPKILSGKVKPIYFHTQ
Protocol: Dose response curves for selected compounds were carried out as described for the HTS screen except that each well contained the indicated concentration of test compound. PR assays were carried out in the same buffer used for ERα assays and contained 1 nM flcPRE and 11 nM PR-B and 100 nM progesterone. The buffer used for AR was similar but also contained 5 μM ZnCl, 5 mM NaF, 0.6 μM CHAPS and 100 nM dihydrotestosterone. AR assays contained 1 nM flcARE and 50 nM full-length wild-type AR.
Specificity was evaluated in dose-response studies by quantitative FAMA using purified full-length human PR binding to a fluorescein-labeled progesterone/glucocorticoid response element (flPRE) and full-length human androgen receptor (AR) binding to a fluorescein-labeled androgen response element (flARE).

[2] = target: T2, ERα (Homo sapiens, UniProt P03372); assay: (ERE)3-luciferase reporter gene assay in T47D-KBluc cells; type: cell-based; set-up: Using a stably transfected breast cancer cell line that expresses endogenous ERα; endogenous in cells; host or cells: T47D-KBluc
T2 sequence (P03372 1-595): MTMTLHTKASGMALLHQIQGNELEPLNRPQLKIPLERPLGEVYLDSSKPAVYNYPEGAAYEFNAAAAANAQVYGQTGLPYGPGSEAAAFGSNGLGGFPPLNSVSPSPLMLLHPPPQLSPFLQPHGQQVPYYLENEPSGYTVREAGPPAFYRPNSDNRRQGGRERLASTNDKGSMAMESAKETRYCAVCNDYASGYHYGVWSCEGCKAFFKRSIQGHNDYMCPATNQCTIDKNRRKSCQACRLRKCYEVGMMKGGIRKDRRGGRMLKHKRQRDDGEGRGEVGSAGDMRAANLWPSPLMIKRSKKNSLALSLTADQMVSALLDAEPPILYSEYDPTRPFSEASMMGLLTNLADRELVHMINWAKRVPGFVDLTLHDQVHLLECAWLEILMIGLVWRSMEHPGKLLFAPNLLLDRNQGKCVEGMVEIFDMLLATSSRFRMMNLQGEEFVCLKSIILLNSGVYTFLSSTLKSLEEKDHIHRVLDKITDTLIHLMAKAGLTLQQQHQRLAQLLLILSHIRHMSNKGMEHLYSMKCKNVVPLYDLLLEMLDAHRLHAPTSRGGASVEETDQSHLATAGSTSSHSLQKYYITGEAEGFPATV
Protocol: The T47D-KBluc cells stably express an (ERE)3-luciferase reporter gene (38). […] Four days before E2 induction, the cells were switched to the above medium, with 10% 2× charcoal-dextran-treated calf serum instead of FBS. 200,000 cells/well were transferred to each well of a 24-well plate. After 24 h the indicated concentrations of the test compounds were added in DMSO and E2 was added to 20 pM. After 24 h cells were washed once in PBS, and 150 μl 1× Passive Lysis Buffer (Promega, Madison Wis.) was used to lyse the cells. Luciferase activity was determined using firefly luciferase reagents from Promega (Madison, Wis.).
Reporter Gene Assays. […] AR was assayed in stably transfected HeLa cells and GR was assayed in stably transfected T47D cells maintained as described above. Four days before each experiment the cells were switched to medium containing CD-treated serum as described above. The HeLaAR cells were plated at 100,000 cells/well and the T47D/A1-2 and T47D-KBluc cells were plated at 200,000 cells/well in 1 ml of their respective media in 24-well plates. After 24 hours the indicated concentrations of E2, dihydrotestosterone (DHT) or dexamethasone (Dex) and DMSO vehicle, with or without TPSF, were added to each well. After 24 hours, the cells were washed once in phosphate buffered saline and lysed using 100 μl of 1× Passive Lysis Buffer (Promega, Madison Wis.). Luciferase activity was determined using BrightGlo firefly luciferase reagent from Promega (Madison, Wis.).

[3] = T47D-KBluc cells, 20 pM E2, 24 h, read-out: IC50 for inhibition of E2 dependent ERα transactivation, (ERE)3-luciferase

Row | IC50 [1] [µM] | ER at 10 μM [2] | other results | Compound
1 | 5.2 | – | IC50 [2, 3]: 22 µM | CN1CCC(C#N)c2ccccc21 (centres unmarked) [Compound 1529]
2 | – | 20 | – | CCCSc1nc2c([nH]1)c(=O)n(C)c(=S)n2C [Compound 95869, 1,3-Dimethyl-8-propylsulfanyl-2-thioxo-1,2,3,7-tetrahydro-purin-6-one]
3 | – | 36 | – | Cn1c(=O)c2[nH]c(SC3CCCCC3)nc2n(C)c1=S [Compound 95899, 8-Cyclohexylsulfanyl-1,3-dimethyl-2-thioxo-1,2,3,7-tetrahydro-purin-6-one]
4 | 7.6 | – | – | Cn1c(=O)c2nc(CSCc3ccccc3)[nH]c2n(C)c1=O [Compound 95910, 8-Benzylsulfanylmethyl-1,3-dimethyl-3,7-dihydro-purine-2,6-dione]
5 | – | 0 | – | Cn1c(=O)c2[nH]c(C3CC4CCC3C4)nc2n(C)c1=O (centres unmarked) [Compound 101807, 8-Bicyclo[2.2.1]hept-2-yl-1,3-dimethyl-3,7-dihydro-purine-2,6-dione]
6 | 5 | – | IC50 [2, 3]: 0.8 µM | CN(C)CCCn1c2c3ccccc3ccc2c2oc(=O)c3ccccc3c21 [Compound 638432]
7 | – | – | concentrations necessary to inhibit AR and GR relative to average IC50 for the two ER-regulated genes (higher) [2]: 20-70 fold; potency as ERα inhibitor relative to TPBM (more potent) [2]: > 15 fold; IC50 ([2]; PI-9 in MCF-7 and (ERE)3-Luc in T47D, read-out: average IC50 for inhibition of the two ER-regulated genes): 0.45 µM | Cn1c(=S)c2[nH]c(SCCCC(=O)c3ccc(F)cc3)nc2n(C)c1=O [TPSF, Butyrophenone, p-fluoro-4-(1,2,3,6,-tetrahydro-1,3-dimethyl-2-oxo-6-thionopurin-8-ylthio)]

— patent US8871751B2, “Compositions and methods relating to nuclear hormone and steroid hormone receptors including inhibitors of estrogen receptor alpha-mediated gene expression and inhibition of breast cancer” (The Board of Trustees of the University of Illinois, priority 2008, dated 2014)
